Assay results reported in the supplement of paper PMC11451515.

Experiments:
P12-Ichikawa [1] = experiment: cell viability relative to DMSO control; higher = less cytotoxic; settings: RPMI 5 mM glucose + 10% dialyzed FBS, 48 h
In short: (§1)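 Before seeding, each leukemia line was adapted for at least four passages in each medium. NOMO1 or SEM cells (500 cells/well) and P12-Ichikawa cells (1000 cells/well) went into 1536-well plates at 5 μl, then received library compounds in DMSO by pin dosing across 11 threefold concentrations, 47 μM to 0.79 nM. Readout was CellTiter-Glo One luminescence after 48 h at 37°C, and viability is given as a per-plate percentage of DMSO wells, with cell-free wells as background.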

SEM cells [2] = experiment: as above; settings: 48 h
In short: as §1

NOMO1 = experiment: AUC of viability dose-response curve (% viability x log10 dose units); higher = less sensitive; settings: 48 h
In short: (§2)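 Leukemia cells adapted to each medium were seeded in 1536-well plates (500 or 1000 cells/well). They were dosed with library compounds in DMSO at 11 threefold doses, 47 μM to 0.79 nM, for 48 h at 37°C. CellTiter-Glo One luminescence was normalised per plate to DMSO and cell-free wells. Area under the curve was integrated by trapezoidal rule over log10 doses on a four-parameter log-logistic fit; curves exceeding full viability were scaled and curves failing quality control removed.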

P12-Ichikawa [3] = experiment: as above; settings: 48 h
In short: as §2

SEM cells [4] = experiment: as above; settings: 48 h
In short: as §2

COc1cc(-c2nn(C3CCC(N4CCN(C(C)=O)CC4)CC3)c3ncnc(N)c23)ccc1NC(=O)c1cc2ccccc2n1C (centres undefined)
Settings	AUC of viability dose-response curve	cell viability [%]
NOMO1, HPLM + 10% dialyzed FBS	443	–
NOMO1, RPMI 5 mM glucose + 10% FBS	450	–
NOMO1, RPMI 5 mM glucose + 10% dialyzed FBS	460	–
P12-Ichikawa [1], 0.0632 µM	–	114
P12-Ichikawa [1], 0.19 µM	–	106
P12-Ichikawa [1], 0.569 µM	–	110
P12-Ichikawa [1], 1.71 µM	–	109
P12-Ichikawa [1], 5.12 µM	–	110
P12-Ichikawa [1], 15.4 µM	–	103
P12-Ichikawa [1], 46.1 µM	–	97.7
P12-Ichikawa [3], HPLM + 10% dialyzed FBS	449	–
P12-Ichikawa [3], RPMI 5 mM glucose + 10% FBS	465	–
P12-Ichikawa [3], RPMI 5 mM glucose + 10% dialyzed FBS	460	–
SEM cells [4], HPLM + 10% dialyzed FBS	472	–
SEM cells [4], RPMI 5 mM glucose + 10% FBS	468	–
SEM cells [4], RPMI 5 mM glucose + 10% dialyzed FBS	468	–

cell viability [%], SEM cells [2]
Settings	HPLM + 10% dialyzed FBS	RPMI 5 mM glucose + 10% FBS	RPMI 5 mM glucose + 10% dialyzed FBS
0.000781 µM	121	125	104
0.00234 µM	117	117	124
0.00702 µM	123	115	121
0.0211 µM	113	109	128
0.0632 µM	123	131	124
0.19 µM	126	140	111
0.569 µM	123	132	117
1.71 µM	142	135	130
5.12 µM	121	129	120
15.4 µM	121	122	113
46.1 µM	101	85.5	90
